From ChEMBL document CHEMBL4507300 (2021)

Assays:
[1] = test system: Phosphatidylinositol 4,5-bisphosphate 3-kinase catalytic subunit alpha isoform (Homo sapiens), P42336 [Q546K]; conditions: Compound concentration 1000.0 nM
[2] = molecular target: Tyrosine-protein kinase ABL1 (Homo sapiens) (UniProt P00519); conditions: Compound concentration 1000.0 nM
[3] = molecular target: Serine/threonine-protein kinase/endoribonuclease IRE1 (Homo sapiens) (UniProt O75460); conditions: Compound concentration 1000.0 nM
[4] = molecular target: Myosin light chain kinase 2, skeletal/cardiac muscle (Homo sapiens) (UniProt Q9H1R3); conditions: Compound concentration 1000.0 nM
[5] = molecular target: Ephrin type-B receptor 6 (Homo sapiens) (UniProt O15197); conditions: Compound concentration 1000.0 nM
[6] = molecular target: Interferon-induced, double-stranded RNA-activated protein kinase (Homo sapiens) (UniProt P19525); conditions: Compound concentration 1000.0 nM
[7] = molecular target: Serine/threonine-protein kinase STK11 (Homo sapiens) (UniProt Q15831); conditions: Compound concentration 1000.0 nM
[8] = molecular target: 5-hydroxytryptamine receptor 1B (Homo sapiens) (UniProt P28222); conditions: Compound concentration 10.0 uM
[9] = molecular target: Mitogen-activated protein kinase kinase kinase 2 (Homo sapiens) (UniProt Q9Y2U5); conditions: Compound concentration 1000.0 nM
[10] = molecular target: Receptor-interacting serine/threonine-protein kinase 4 (Homo sapiens) (UniProt P57078); conditions: Compound concentration 1000.0 nM
[11] = test system: Receptor-type tyrosine-protein kinase FLT3 (Homo sapiens), P36888 [UNDEFINED MUTATION]; conditions: Compound concentration 1000.0 nM
[12] = molecular target: GABA-A receptor; anion channel (Rattus norvegicus) (UniProt O09028+P15431+P18506+P18508+P19969+P20236+P23574+P23576+P28471+P28473+P30191+P62813+P63079+P63138+Q91ZM7+Q9ES14); conditions: Compound concentration 10.0 uM
[13] = molecular target: LIM domain kinase 1 (Homo sapiens) (UniProt P53667); conditions: Compound concentration 1000.0 nM
[14] = molecular target: Megakaryocyte-associated tyrosine-protein kinase (Homo sapiens) (UniProt P42679); conditions: Compound concentration 1000.0 nM
[15] = molecular target: NT-3 growth factor receptor (Homo sapiens) (UniProt Q16288); conditions: Compound concentration 1000.0 nM
[16] = molecular target: Cyclin-dependent kinase 2 (Homo sapiens) (UniProt P24941); conditions: Compound concentration 1000.0 nM
[17] = molecular target: Calcium/calmodulin-dependent protein kinase type IV (Homo sapiens) (UniProt Q16566); conditions: Compound concentration 1000.0 nM
[18] = molecular target: Interleukin-1 receptor-associated kinase 3 (Homo sapiens) (UniProt Q9Y616); conditions: Compound concentration 1000.0 nM
[19] = molecular target: Serine/threonine-protein kinase PRP4 homolog (Homo sapiens) (UniProt Q13523); conditions: Compound concentration 1000.0 nM
[20] = molecular target: Cyclin-dependent kinase-like 5 (Homo sapiens) (UniProt O76039); conditions: Compound concentration 1000.0 nM
[21] = test system: Proto-oncogene tyrosine-protein kinase receptor Ret (Homo sapiens), P07949 [V804M]; conditions: Compound concentration 1000.0 nM
[22] = molecular target: Casein kinase II subunit alpha (Homo sapiens) (UniProt P68400); conditions: Compound concentration 1000.0 nM
[23] = test system: Phosphatidylinositol 4,5-bisphosphate 3-kinase catalytic subunit alpha isoform (Homo sapiens), P42336 [E542K]; conditions: Compound concentration 1000.0 nM
[24] = molecular target: Fibroblast growth factor receptor 3 (Homo sapiens) (UniProt P22607); conditions: Compound concentration 1000.0 nM
[25] = molecular target: Serine/threonine-protein kinase RIO2 (Homo sapiens) (UniProt Q9BVS4); conditions: Compound concentration 1000.0 nM
[26] = molecular target: Serine/threonine-protein kinase WNK4 (Homo sapiens) (UniProt Q96J92); conditions: Compound concentration 1000.0 nM
[27] = test system: Receptor-type tyrosine-protein kinase FLT3 (Homo sapiens), P36888 [UNDEFINED MUTATION]; conditions: Compound concentration 1000.0 nM; remark: listed apart in the source
[28] = molecular target: NUAK family SNF1-like kinase 2 (Homo sapiens) (UniProt Q9H093); conditions: Compound concentration 1000.0 nM
[29] = molecular target: Activin receptor type-2A (Homo sapiens) (UniProt P27037); conditions: Compound concentration 1000.0 nM
[30] = molecular target: Serine/threonine-protein kinase mTOR (Homo sapiens) (UniProt P42345); conditions: Compound concentration 1000.0 nM
[31] = molecular target: 5-hydroxytryptamine receptor 6 (Homo sapiens) (UniProt P50406); conditions: Compound concentration 10.0 uM
[32] = molecular target: Uncharacterized serine/threonine-protein kinase SBK3 (Homo sapiens) (UniProt P0C264); conditions: Compound concentration 1000.0 nM
[33] = molecular target: Epidermal growth factor receptor (Homo sapiens) (UniProt P00533); conditions: Compound concentration 1000.0 nM
[34] = molecular target: Tyrosine-protein kinase JAK1 (Homo sapiens) (UniProt P23458); conditions: Compound concentration 1000.0 nM
[35] = molecular target: Mitogen-activated protein kinase kinase kinase 19 (Homo sapiens) (UniProt Q56UN5); conditions: Compound concentration 1000.0 nM
[36] = molecular target: Serine/threonine-protein kinase TAO1 (Homo sapiens) (UniProt Q7L7X3); conditions: Compound concentration 1000.0 nM
[37] = molecular target: Serine/threonine-protein kinase D1 (Homo sapiens) (UniProt Q15139); conditions: Compound concentration 1000.0 nM
[38] = molecular target: D(2) dopamine receptor (Homo sapiens) (UniProt P14416); conditions: Compound concentration 10.0 uM
[39] = molecular target: Serine/threonine-protein kinase RIO1 (Homo sapiens) (UniProt Q9BRS2); conditions: Compound concentration 1000.0 nM
[40] = molecular target: Ephrin type-B receptor 3 (Homo sapiens) (UniProt P54753); conditions: Compound concentration 1000.0 nM
[41] = molecular target: Serine/threonine-protein kinase ULK2 (Homo sapiens) (UniProt Q8IYT8); conditions: Compound concentration 1000.0 nM
[42] = molecular target: Mitogen-activated protein kinase 7 (Homo sapiens) (UniProt Q13164); conditions: Compound concentration 1000.0 nM
[43] = molecular target: Ephrin type-A receptor 4 (Homo sapiens) (UniProt P54764); conditions: Compound concentration 1000.0 nM

Receptor-type tyrosine-protein kinase FLT3 (Homo sapiens), P36888 [UNDEFINED MUTATION], sequence (P36888 whole entry, looked up, change not shown): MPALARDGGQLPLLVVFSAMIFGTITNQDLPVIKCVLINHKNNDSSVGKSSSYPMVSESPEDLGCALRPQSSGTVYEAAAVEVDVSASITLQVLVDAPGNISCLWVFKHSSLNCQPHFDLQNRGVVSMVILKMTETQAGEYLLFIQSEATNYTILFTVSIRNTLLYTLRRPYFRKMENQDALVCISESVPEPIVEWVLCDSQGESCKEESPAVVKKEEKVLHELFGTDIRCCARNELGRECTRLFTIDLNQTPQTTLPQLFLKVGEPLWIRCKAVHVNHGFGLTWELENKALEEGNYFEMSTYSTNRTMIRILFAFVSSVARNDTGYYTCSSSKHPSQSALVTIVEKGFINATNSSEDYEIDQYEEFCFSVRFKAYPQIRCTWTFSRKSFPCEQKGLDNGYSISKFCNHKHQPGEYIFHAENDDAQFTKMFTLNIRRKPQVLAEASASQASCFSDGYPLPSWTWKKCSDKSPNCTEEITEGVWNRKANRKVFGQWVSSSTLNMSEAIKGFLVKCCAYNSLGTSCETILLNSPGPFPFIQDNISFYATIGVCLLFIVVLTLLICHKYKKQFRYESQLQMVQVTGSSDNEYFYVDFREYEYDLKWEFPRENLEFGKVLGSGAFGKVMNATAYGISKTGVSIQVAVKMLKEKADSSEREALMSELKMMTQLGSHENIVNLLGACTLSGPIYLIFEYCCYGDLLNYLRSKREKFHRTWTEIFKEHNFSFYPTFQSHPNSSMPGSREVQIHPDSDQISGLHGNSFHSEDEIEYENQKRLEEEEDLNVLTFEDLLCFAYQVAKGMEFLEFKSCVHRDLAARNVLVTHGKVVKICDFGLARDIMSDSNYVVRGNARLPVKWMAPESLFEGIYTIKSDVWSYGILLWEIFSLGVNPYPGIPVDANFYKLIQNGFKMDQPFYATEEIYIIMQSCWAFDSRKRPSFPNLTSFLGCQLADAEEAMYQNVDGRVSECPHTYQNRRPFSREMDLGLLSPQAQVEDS
LIM domain kinase 1 (Homo sapiens), sequence (P53667 whole entry, looked up, the tested form may be a part): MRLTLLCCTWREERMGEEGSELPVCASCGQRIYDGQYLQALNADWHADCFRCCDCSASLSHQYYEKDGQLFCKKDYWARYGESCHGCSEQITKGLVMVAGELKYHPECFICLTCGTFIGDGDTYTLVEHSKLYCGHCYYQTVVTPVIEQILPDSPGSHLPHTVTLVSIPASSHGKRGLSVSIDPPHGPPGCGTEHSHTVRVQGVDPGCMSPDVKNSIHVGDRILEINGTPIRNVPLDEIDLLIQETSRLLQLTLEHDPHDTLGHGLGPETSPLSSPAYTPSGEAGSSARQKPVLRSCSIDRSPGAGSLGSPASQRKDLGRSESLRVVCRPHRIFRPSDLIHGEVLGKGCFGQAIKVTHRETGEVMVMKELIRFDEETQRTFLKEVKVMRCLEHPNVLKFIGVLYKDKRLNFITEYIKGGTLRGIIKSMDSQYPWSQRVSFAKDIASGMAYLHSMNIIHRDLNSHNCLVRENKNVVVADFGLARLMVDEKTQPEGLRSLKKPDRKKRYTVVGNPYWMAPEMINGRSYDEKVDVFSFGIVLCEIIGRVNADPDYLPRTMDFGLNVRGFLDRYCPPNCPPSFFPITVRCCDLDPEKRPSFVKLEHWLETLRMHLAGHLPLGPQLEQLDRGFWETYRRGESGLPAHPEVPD
Receptor-interacting serine/threonine-protein kinase 4 (Homo sapiens), sequence (P57078 whole entry): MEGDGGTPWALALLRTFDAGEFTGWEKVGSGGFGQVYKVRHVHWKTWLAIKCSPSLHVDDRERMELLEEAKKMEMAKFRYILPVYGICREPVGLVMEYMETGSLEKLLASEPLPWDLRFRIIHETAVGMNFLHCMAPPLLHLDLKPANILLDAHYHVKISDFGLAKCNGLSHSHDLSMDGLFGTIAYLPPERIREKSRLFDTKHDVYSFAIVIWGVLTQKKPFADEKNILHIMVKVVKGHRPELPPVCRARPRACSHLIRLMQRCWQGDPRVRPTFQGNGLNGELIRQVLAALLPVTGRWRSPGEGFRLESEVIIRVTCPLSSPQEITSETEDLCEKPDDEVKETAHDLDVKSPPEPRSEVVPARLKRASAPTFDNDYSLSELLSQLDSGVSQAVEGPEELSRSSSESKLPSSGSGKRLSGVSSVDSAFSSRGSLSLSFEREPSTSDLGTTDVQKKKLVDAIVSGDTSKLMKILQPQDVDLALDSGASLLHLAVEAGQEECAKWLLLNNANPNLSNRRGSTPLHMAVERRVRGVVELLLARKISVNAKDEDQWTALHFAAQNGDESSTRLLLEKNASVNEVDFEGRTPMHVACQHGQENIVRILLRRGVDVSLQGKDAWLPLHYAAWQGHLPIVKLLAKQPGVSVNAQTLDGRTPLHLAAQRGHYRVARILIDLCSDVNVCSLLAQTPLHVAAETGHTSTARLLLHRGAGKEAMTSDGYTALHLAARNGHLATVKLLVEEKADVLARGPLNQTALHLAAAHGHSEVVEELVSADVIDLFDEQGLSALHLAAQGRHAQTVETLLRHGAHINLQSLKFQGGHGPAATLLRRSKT
Megakaryocyte-associated tyrosine-protein kinase (Homo sapiens), sequence (P42679 whole entry): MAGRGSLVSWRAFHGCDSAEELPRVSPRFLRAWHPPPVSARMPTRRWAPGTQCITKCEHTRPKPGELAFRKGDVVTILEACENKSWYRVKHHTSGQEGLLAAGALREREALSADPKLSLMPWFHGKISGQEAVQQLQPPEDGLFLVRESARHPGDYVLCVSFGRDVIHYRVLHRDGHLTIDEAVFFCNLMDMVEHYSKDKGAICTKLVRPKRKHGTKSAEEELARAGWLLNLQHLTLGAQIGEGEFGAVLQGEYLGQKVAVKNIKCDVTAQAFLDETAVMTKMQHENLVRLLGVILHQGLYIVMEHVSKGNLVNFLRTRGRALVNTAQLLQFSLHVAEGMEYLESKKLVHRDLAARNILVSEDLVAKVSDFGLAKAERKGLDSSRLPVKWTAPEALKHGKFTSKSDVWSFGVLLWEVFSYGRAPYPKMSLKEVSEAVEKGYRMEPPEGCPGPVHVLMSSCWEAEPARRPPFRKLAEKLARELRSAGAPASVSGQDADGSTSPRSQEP
Ephrin type-B receptor 3 (Homo sapiens), sequence (P54753 whole entry): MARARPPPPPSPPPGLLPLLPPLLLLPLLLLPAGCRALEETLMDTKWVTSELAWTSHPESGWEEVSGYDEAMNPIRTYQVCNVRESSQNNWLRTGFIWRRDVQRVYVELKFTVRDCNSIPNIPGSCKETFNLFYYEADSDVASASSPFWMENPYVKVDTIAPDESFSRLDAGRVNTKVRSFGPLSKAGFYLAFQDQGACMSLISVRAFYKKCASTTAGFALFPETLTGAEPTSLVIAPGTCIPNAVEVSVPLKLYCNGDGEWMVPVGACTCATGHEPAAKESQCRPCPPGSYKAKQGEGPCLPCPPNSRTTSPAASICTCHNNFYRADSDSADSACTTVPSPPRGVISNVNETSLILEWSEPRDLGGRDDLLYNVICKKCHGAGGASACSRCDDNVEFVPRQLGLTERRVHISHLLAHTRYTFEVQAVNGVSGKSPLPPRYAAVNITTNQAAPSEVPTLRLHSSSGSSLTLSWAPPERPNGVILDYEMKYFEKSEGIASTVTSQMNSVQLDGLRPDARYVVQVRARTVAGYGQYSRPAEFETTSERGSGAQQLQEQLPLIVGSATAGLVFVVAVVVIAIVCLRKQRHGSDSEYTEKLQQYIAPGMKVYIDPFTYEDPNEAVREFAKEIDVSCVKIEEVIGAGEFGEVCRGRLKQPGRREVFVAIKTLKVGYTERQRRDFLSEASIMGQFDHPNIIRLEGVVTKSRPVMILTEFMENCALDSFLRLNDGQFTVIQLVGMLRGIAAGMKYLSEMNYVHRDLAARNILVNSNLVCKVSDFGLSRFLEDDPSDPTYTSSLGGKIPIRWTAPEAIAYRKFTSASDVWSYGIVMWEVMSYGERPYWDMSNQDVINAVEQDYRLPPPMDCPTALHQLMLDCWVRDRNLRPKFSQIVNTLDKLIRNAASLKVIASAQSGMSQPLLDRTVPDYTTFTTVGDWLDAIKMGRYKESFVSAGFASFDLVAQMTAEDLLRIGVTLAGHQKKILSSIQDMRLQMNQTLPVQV
Serine/threonine-protein kinase D1 (Homo sapiens), sequence (Q15139 whole entry): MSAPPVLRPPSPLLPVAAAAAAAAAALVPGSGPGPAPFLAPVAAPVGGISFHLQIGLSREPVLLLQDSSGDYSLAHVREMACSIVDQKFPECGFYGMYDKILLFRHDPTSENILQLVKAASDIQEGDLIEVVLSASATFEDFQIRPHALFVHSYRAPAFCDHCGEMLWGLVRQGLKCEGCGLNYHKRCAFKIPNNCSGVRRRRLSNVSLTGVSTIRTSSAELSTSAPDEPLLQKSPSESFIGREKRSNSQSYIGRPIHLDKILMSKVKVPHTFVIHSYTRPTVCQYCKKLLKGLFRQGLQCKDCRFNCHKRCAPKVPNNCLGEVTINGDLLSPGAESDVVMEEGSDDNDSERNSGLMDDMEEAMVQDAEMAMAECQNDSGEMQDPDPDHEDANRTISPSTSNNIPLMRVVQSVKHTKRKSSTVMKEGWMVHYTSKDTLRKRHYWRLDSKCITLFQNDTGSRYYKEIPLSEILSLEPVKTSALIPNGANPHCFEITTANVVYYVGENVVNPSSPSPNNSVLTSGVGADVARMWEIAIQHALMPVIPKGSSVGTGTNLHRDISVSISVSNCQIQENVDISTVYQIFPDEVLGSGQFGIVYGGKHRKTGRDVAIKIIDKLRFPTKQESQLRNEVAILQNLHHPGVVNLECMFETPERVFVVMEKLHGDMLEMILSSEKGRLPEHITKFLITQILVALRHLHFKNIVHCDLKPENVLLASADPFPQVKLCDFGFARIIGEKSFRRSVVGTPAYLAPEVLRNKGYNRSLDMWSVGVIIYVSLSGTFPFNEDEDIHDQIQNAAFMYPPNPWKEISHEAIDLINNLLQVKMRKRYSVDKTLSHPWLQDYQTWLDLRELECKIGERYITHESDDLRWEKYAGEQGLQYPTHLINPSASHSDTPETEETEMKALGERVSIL

COc1cccc(CNC(=O)c2nc3scc(COCc4ccc(C(=O)O)cc4)c3c(=O)[nH]2)c1 [T-26c]
inactive: residual activity [1] 70.4% | residual activity [2] 68.6% | residual activity [3] 89.7% | residual activity [4] 100% | residual activity [5] 100% | residual activity [6] 97.7% | residual activity [7] 97.2% | inhibition [8] 15.9% | residual activity [9] 65.5% | residual activity [10] 67.1% | residual activity [11] 58.4% | inhibition [12] 19% | residual activity [13] 96.8% | residual activity [14] 97.8% | residual activity [15] 76.3% | residual activity [16] 100% | residual activity [17] 100% | residual activity [18] 97.5% | residual activity [19] 97.3% | residual activity [20] 89.5% | residual activity [21] 95.3% | residual activity [22] 90.7% | residual activity [23] 76.1% | residual activity [24] 100% | residual activity [25] 72.4% | residual activity [26] 100% | residual activity [27] 63% | residual activity [28] 76.4% | residual activity [29] 92.9% | residual activity [30] 100% | inhibition [31] 15.8% | residual activity [32] 100% | residual activity [33] 69.3% | residual activity [34] 93.9% | residual activity [35] 79.2% | residual activity [36] 69.5% | residual activity [37] 100% | inhibition [38] 7.09% | residual activity [39] 52.1% | residual activity [40] 85.4% | residual activity [41] 70.8% | residual activity [42] 99.3% | residual activity [43] 91.1%
